# Data published in US10273257B2, “Cancer cell-containing composition” (KING FAHD UNIVERSITY OF PETROLEUM AND MINERALS, priority 2016, dated 2019).
# Where “and” joins values, the source holds several entries; their conditions need not be identical. Equal values may be shown once.
# Tested on: MDA-MB231 cells
# Assay: MTT assay for anticancer activity, MDA-MB231 cells
# Format: cell-based, human
# Details: MDA-MB231 breast cancer cells, 3-day exposure protocol
# Description: (§1) Human breast cancer cells (MDA-MB231, MCF-7) were grown in Dulbecco's modified Eagle's medium (DMEM) supplemented with 10% fetal bovine serum (FBS) and 1% penicillin (10,000 units) with streptomycin (10 mg) in a 74 cm^2 flask and incubated until 80% confluence was obtained in a humidified environment of 5% CO2-95% air at 37° C.
# (§2) Cancer cells were seeded and maintained in quadruplicate in a 96-well tissue culture plate at 5×10^3 cells per well in 150 μl of the same medium. The cancer cells were incubated for 24 hours before the treatment. All compounds were dissolved in 50% DMSO. Therefore, DMSO was used as a negative control. Complexes 1-5 and cisplatin (positive control) at 0.01 μM, 0.05 μM, 0.1 μM, 1 μM, 5 μM, 10 μM, and 50 μM concentrations were prepared in DMEM. The final DMSO concentration, in each well, was less than 0.1%.
# (§3) The cancer cells were treated with the synthesized compounds 1-5 and cisplatin and then incubated for […]. The medium from the wells was discarded and 100 μL of DMEM containing MTT (3-(4,5-dimethylthiazol-2-yl)-2,5-diphenyltetrazolium bromide) (5 mg/mL) was added to the wells. The cells were incubated in a CO2 incubator at 37° C. in the dark for 4 h. After incubation, a purple colored formazan (an artificial chromogenic dye, a product of the reduction of water […] tetrazolium salts, such as MTT, by dehydrogenases and reductases) was produced by the cells and appeared as dark crystals in the bottom of the wells. The medium from each well was discarded carefully to avoid disruption of the monolayer. 100 μL of isopropanol was added in each well. The solution was thoroughly mixed in the wells to dissolve the formazan crystals which ultimately results into a purple solution. The absorbance of the 96-well plate was taken at 570 nm with Mithras^2LB943 against a blank (e.g. unreduced MTT in isopropanol). All data presented are mean t standard deviation.
# (§4) The in vitro cytotoxic effect of mixed ligand gold(I) complexes 1-5 against MDA-MB231 and MCF-7 were studied using the MTT assay. The in vitro cytotoxic activity depends on the exposure time and the concentrations of the complexes. For that reason, different concentrations of the complexes and a 3-day exposure protocol to determine the IC50 values for all five complexes and cisplatin were used.
row,Compound,IC50
1,"CCN(CC)C(=S)[S][Au-][P+](CC)(CC)CC [Complex 4, (Et)3PAu(S2CN{Et}2)]",0.044 µM
2,"CC[P+](CC)(CC)[Au-][S]C(=S)N(C)C [Complex 2, (Et)3PAu(S2CN{Me}2)]",0.055 µM
3,"CC(C)[P+]([Au-][S]C(=S)N(C)C)(C(C)C)C(C)C [Complex 5, (i-Pr)3PAu(S2CN{Me}2)]",0.7 µM
4,"CCN(CC)C(=S)[S][Au-][P+](C)(C)C [Complex 3, (Me)3PAu(S2CN{Et}2)]",0.043 µM
5,"CN(C)C(=S)[S][Au-][P+](C)(C)C [Complex 1, (Me)3PAu(S2CN{Me}2)]",0.044 µM
6,"N.N.[Cl][Pt][Cl] [Cisplatin, reference compound]",25.8 µM

# Tested on: MCF-7 cells
# Assay: MTT assay for anticancer activity, MCF-7 cells
# Format: cell-based, human
# Details: MCF-7 breast cancer cells, 3-day exposure protocol
# Description: as §1, §2, §3, §4
row,Compound,IC50
1,"CCN(CC)C(=S)[S][Au-][P+](CC)(CC)CC [Complex 4, (Et)3PAu(S2CN{Et}2)]",0.0053 µM
2,"CC[P+](CC)(CC)[Au-][S]C(=S)N(C)C [Complex 2, (Et)3PAu(S2CN{Me}2)]",0.0064 µM
3,"CC(C)[P+]([Au-][S]C(=S)N(C)C)(C(C)C)C(C)C [Complex 5, (i-Pr)3PAu(S2CN{Me}2)]",0.0078 µM and 0.0079 µM
4,"CCN(CC)C(=S)[S][Au-][P+](C)(C)C [Complex 3, (Me)3PAu(S2CN{Et}2)]",0.0088 µM
5,"CN(C)C(=S)[S][Au-][P+](C)(C)C [Complex 1, (Me)3PAu(S2CN{Me}2)]",0.0078 µM
6,"N.N.[Cl][Pt][Cl] [Cisplatin, reference compound]",0.0059 µM

# Tested on: CT-DNA
# Assay: Fluorescence emission titration with CT-DNA (Scatchard)
# Format: binding, calf
# Details: complex 1.3×10^−4 M, excitation 275 nm, Tris-HCl/NaCl buffer, mean standard deviations ±0.07
# Description: Fluorescence experiments were carried out at a constant concentration of the complexes with increasing CT-DNA concentrations. The binding constant, K, of the gold(I) complexes was determined from Scatchard eqs. (2) and (3) by employing emission titration (Liu, D. G.; Liao, P. J.; Fang, Z. Y.; Huang, S. S.; Sheng, L. G.; Yu, Q. R. Interaction of bis(ethylene)tin(bis(salicylidene)ethylenediamine) with DNA. Anal. Sci. 2002, 18 391-395; and Healy, F. E. Quantitative determination of DNA-ligand binding using fluorescence spectroscopy. J. Chem. Educ. 2007, 84, 1304-1307, each incorporated herein by reference in their entirety). CF=CT(I/Io−P)(1−P) (2) r/CF=K(n−r) (3) where CF is the free probe (i.e. free metal complex) concentration, CT is the total concentration of the probe added, I and Io are fluorescence intensities in the presence and absence of CT-DNA, respectively, r denotes a ratio of CB (CB=CT−CF) to the DNA concentration, i.e., the bound probe concentration to the DNA concentration, K is the binding constant, “n” is the binding site number, and P is the ratio of the observed fluorescence quantum yield of the bound probe to that of the free probe. The value P was obtained as the intercept by extrapolating from a plot of I/Io vs. 1/[DNA].
# The fluorescence emission titration of complexes 1-5 was carried out in order to understand the nature of binding mode of these complexes with CT-DNA. This method is highly sensitive, reproducible, and accurate. In the absence of CT-DNA, all complexes 1-5 (concentration=1.3×10^−4 M) emitted strong luminescence when excited at 275 nm in Tris-HCl/NaCl buffer with an emission maximum appearing at 340 nm. However, the subsequent addition of CT-DNA from 0.067-0.5×10^−4 M caused a gradual enhancement in the fluorescence intensity of the complexes with no apparent change in the shape and position of the emission bands (FIGS. 10A-10E), which is indicative of a strong interaction of the Au(I) drug entities with CT DNA. The hydrophobic molecular structure of CT DNA could be responsible for enhancing the fluorescence quantum yield of complexes, leading to the higher fluorescence intensity with increasing concentration of CT DNA. In addition, energy transfer from CT-DNA to metal complexes could also induce fluorescence enhancement (Arjmand, F.; Jamsheera, A.; Afzal, M.; S. Tabassum, S. Enantiomeric Specificity of Biologically Significant Cu(II) and Zn(II) Chromone Complexes Towards DNA. Chirality. 2012, 24, 977-986, Tabassum, S.; Yadav, S.; Arjmand, F. Synthesis and mechanistic insight of glycosylated Cu^II/Ni^II—Sn2^IV heterobimetallic DNA binding agents: Validation of a specific Cu^II—Sn2^IV chemotherapeutic agent for human leukemic cell line K-562. J. Organomet. Chem. 2013, 745-746, 226-234, incorporated herein by reference in its entirety).
row,Compound,Scatchard binding constant K
1,"CCN(CC)C(=S)[S][Au-][P+](CC)(CC)CC [Complex 4, (Et)3PAu(S2CN{Et}2)]",66000 M⁻¹
2,"CC[P+](CC)(CC)[Au-][S]C(=S)N(C)C [Complex 2, (Et)3PAu(S2CN{Me}2)]",35000 M⁻¹
3,"CC(C)[P+]([Au-][S]C(=S)N(C)C)(C(C)C)C(C)C [Complex 5, (i-Pr)3PAu(S2CN{Me}2)]",19000 M⁻¹
4,"CCN(CC)C(=S)[S][Au-][P+](C)(C)C [Complex 3, (Me)3PAu(S2CN{Et}2)]",57000 M⁻¹
5,"CN(C)C(=S)[S][Au-][P+](C)(C)C [Complex 1, (Me)3PAu(S2CN{Me}2)]",28000 M⁻¹

# Tested on: EB-DNA system (CT DNA treated with EB)
# Assay: Ethidium bromide displacement fluorescence quenching (Stern-Volmer)
# Format: binding, calf
# Details: EB-bound CT DNA, emission at 585-590 nm
# Description: Luminescence titrations involving quenching experiments were conducted by adding increasing concentration of the complexes to a fixed concentration of EB-DNA system. The Tris-HCl buffer was used as a blank to make preliminary adjustments. The Stern-Volmer quenching constant, Ksv was obtained from the following equation (Lakowiez, R. J.; Webber, G. Quenching of fluorescence by oxygen. Probe for structural fluctuations in macromolecules. Biochem. 1973, 12, 4161-4170, incorporated herein by reference in its entirety). I0/I=1+KSV·r (4) where r is the ratio of total concentration of complex to that of DNA, and Io and I are the fluorescence intensities of EB in the absence and presence of complex.
# A reliable method for studying the binding of molecules to nucleic acids is the fluorescence quenching method. Ethidium bromide (EB) is a planar cationic dye which is widely used as a sensitive fluorescence probe for native DNA. EB emits intense fluorescent light in the presence of DNA due to its strong intercalation between the adjacent DNA base pairs. The displacement technique is based on the decrease of fluorescence resulting from the displacement of EB from a DNA sequence by a quencher, and the quenching is due to the reduction of the number of binding sites on the DNA that are available to the EB (Ramachandran. E.; Raja, S. D.; Bhuvanesh, P. S. N.; Natarajan, K. Mixed ligand palladium(II) complexes of 6-methoxy-2-oxo-1,2-dihydroquinoline-3-carbaldehyde 4N-substituted thiosemicarbazones with triphenylphosphine co-ligand: Synthesis, crystal structure and biological properties. Dalton Trans. 2012, 41 13308-13323, incorporated herein by reference in its entirety). […] From the above data, it is clear that 4 replaces EB more effectively than other complexes, and this observation agreed with the results obtained from electronic absorption studies.
row,Compound,Stern-Volmer quenching constant KSV
1,"CCN(CC)C(=S)[S][Au-][P+](CC)(CC)CC [Complex 4, (Et)3PAu(S2CN{Et}2)]",0.91
2,"CC[P+](CC)(CC)[Au-][S]C(=S)N(C)C [Complex 2, (Et)3PAu(S2CN{Me}2)]",0.34
3,"CC(C)[P+]([Au-][S]C(=S)N(C)C)(C(C)C)C(C)C [Complex 5, (i-Pr)3PAu(S2CN{Me}2)]",0.10
4,"CCN(CC)C(=S)[S][Au-][P+](C)(C)C [Complex 3, (Me)3PAu(S2CN{Et}2)]",0.67
5,"CN(C)C(=S)[S][Au-][P+](C)(C)C [Complex 1, (Me)3PAu(S2CN{Me}2)]",0.19
